From US20200361895A1, “NOVEL SULFONAMIDE CARBOXAMIDE COMPOUNDS” (Inflazome Limited, priority 2017, published 2020)
Counter-ions that a name gives are not always drawn.

Tests used:
NLRP3 [1] = target: T1, NLRP3 (Homo sapiens, UniProt Q96P20); experiment: Human whole blood IL1β release assay (LPS + nigericin, AlphaLisa IL-1β; HWB IC50); type: cell-based; set-up: Human whole blood in Li-heparin tubes was obtained from healthy donors from a volunteer donor panel; from tissue; host or cells: human whole blood from healthy donors; details: IL-1β release
How it was run: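 Donor Li-heparin whole blood primed with 1 μg/ml LPS, given compound (8-point half-log series, 10 μM top; DMSO 0.1% final) for 3 h at 37 °C, then nigericin 10 μM final for 1 h. Supernatant IL-1β measured by AlphaLisa; IC50 from 4-parameter variable-slope fit.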

NLRP3 [2] = target: T1, NLRP3; experiment: THP-1 cells pyroptosis assay (LPS + nigericin, resazurin readout; THP IC50); type: cell-based; set-up: Seed THP-1 cells (25,000 cells/well) containing 1.0 μg/ml LPS in 40 μl of RPMI medium; host or cells: THP-1 cells
How it was run: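 Human THP-1 cells, 25,000/well in serum-free RPMI with 1 μg/ml LPS, treated 3 hrs at 37° C with compound (8-point half-log, 10 μM top, 0.1% DMSO), then 5 μM nigericin 1 hr. Viability by 100 μM resazurin fluorescence after 1-2 hrs; IC50 by 4-parameter fit.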

T1 sequence (Q96P20 whole entry): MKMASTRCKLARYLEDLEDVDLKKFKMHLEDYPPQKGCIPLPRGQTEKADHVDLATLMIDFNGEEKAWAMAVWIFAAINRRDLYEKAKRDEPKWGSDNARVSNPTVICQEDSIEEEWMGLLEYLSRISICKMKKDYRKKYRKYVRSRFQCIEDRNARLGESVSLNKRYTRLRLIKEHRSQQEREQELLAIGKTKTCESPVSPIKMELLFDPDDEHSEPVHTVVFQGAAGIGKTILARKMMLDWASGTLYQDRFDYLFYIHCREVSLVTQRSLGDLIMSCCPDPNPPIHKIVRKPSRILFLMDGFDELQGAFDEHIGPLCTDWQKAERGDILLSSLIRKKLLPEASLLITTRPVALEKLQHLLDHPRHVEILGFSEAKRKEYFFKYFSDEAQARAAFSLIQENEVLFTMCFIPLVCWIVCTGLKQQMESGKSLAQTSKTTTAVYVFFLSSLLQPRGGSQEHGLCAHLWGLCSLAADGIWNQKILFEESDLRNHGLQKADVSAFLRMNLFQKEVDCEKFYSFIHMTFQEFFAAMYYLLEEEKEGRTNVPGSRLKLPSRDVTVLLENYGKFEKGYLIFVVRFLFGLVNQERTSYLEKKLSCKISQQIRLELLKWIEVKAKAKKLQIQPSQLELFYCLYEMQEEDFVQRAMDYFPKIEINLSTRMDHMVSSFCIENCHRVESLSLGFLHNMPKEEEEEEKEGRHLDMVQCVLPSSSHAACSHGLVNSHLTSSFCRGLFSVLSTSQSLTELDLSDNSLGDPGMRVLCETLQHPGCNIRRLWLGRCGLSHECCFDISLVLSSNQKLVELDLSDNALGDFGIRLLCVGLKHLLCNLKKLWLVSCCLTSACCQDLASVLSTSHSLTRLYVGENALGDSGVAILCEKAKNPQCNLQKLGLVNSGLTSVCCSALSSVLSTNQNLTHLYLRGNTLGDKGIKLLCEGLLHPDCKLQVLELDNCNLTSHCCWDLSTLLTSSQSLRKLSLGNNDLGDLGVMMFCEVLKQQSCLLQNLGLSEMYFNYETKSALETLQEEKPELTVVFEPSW

| Structure (SMILES) | IC50 (NLRP3 [1]) | IC50 (NLRP3 [2]) |
| --- | --- | --- |
| CC(C)n1ccc(S(=O)(=O)NC(=O)Nc2c(-c3cc[nH]c(=O)c3)ccc3c2CCC3)n1 [Example 218, 1-Isopropyl-N-((5-(2-oxo-1,2-dihydropyridin-4-yl)-2,3-dihydro-1H-inden-4-yl)carbamoyl)-1H-pyrazole-3-sulfonamide] | ≤ 1 µM | ≤ 0.5 µM |
| COc1cc(-c2ccc3c(c2NC(=O)NS(=O)(=O)c2ccn(C(C)(C)CN4CCC4)n2)CCC3)ccn1 [Example 219, 1-(1-(Azetidin-1-yl)-2-methylpropan-2-yl)-N-((5-(2-methoxypyridin-4-yl)-2,3-dihydro-1H-inden-4-yl)carbamoyl)-1H-pyrazole-3-sulfonamide] | ≤ 0.5 µM | ≤ 0.5 µM |
| N#Cc1cc(-c2ccc3c(c2NC(=O)NS(=O)(=O)c2ccn(C4CC4)n2)CCC3)ccn1 [Example 222, N-((5-(2-Cyanopyridin-4-yl)-2,3-dihydro-1H-inden-4-yl)carbamoyl)-1-cyclopropyl-1H-pyrazole-3-sulfonamide, sodium salt] | ≤ 0.5 µM | ≤ 0.5 µM |
| CC(C)n1ccc(S(=O)(=O)NC(=O)Nc2c(-c3ccnc(C#N)c3)cc(Cl)c3c2CCC3)n1 [Example 225, N-((7-Chloro-5-(2-cyanopyridin-4-yl)-2,3-dihydro-1H-inden-4-yl)carbamoyl)-1-isopropyl-1H-pyrazole-3-sulfonamide, sodium salt] | ≤ 5 µM | ≤ 0.5 µM |
| COc1cc(-c2cc(Cl)c3c(c2NC(=O)NS(=O)(=O)c2ccn(C(C)C)n2)CCC3)ccn1 [Example 226, N-((7-Chloro-5-(2-methoxypyridin-4-yl)2,3-dihydro-1H-inden-4-yl)carbamoyl)-1-isopropyl-1H-pyrazole-3-sulfonamide, sodium salt] | ≤ 1 µM | ≤ 0.5 µM |
| N#Cc1cc(-c2ccc3c(c2NC(=O)NS(=O)(=O)c2ccn(C4CCC4)n2)CCC3)ccn1 [Example 227, N-((5-(2-Cyanopyridin-4-yl)-2,3-dihydro-1H-inden-4-yl)carbamoyl)-1-cyclobutyl-1H-pyrazole-3-sulfonamide] | ≤ 0.5 µM | ≤ 0.5 µM |
| CC(C)n1cnc(S(=O)(=O)NC(=O)Nc2c(-c3ccnc(C#N)c3)ccc3c2CCC3)n1 [Example 228, N-((5-(2-Cyanopyridin-4-yl)-2,3-dihydro-1H-inden-4-yl)carbamoyl)-1-isopropyl-1H-1,2,4-triazole-3-sulfonamide, sodium salt] | ≤ 0.5 µM | ≤ 0.5 µM |
| CC(C)n1cnc(S(=O)(=O)NC(=O)Nc2c(-c3ccnc(C#N)c3)ccc3c2CCC3)c1 [Example 229, N-((5-(2-Cyanopyridin-4-yl)-2,3-dihydro-1H-inden-4-yl)carbamoyl)-1-isopropyl-1H-imidazole-4-sulfonamide] | ≤ 0.5 µM | ≤ 0.5 µM |
| N#Cc1cc(-c2ccc3c(c2NC(=O)NS(=O)(=O)c2cnn(CC(F)F)c2)CCC3)ccn1 [Example 231, N-((5-(2-Cyanopyridin-4-yl)-2,3-dihydro-1H-inden-4-yl)carbamoyl)-1-(2,2-difluoroethyl)-1H-pyrazole-4-sulfonamide, sodium salt] | ≤ 0.5 µM | ≤ 0.5 µM |
| COc1cc(-c2ccc3c(c2NC(=O)NS(=O)(=O)c2ncn(C(C)C)n2)CCC3)ccn1 [Example 232, 1-Isopropyl-N-((5-(2-methoxypyridin-4-yl)-2,3-dihydro-1H-inden-4-yl)carbamoyl)-1H-1,2,4-triazole-3-sulfonamide, sodium salt] | ≤ 1 µM | ≤ 0.5 µM |
| COc1cc(-c2ccc3c(c2NC(=O)NS(=O)(=O)c2cn(C(C)C)cn2)CCC3)ccn1 [Example 233, 1-Isopropyl-N-((5-(2-methoxypyridin-4-yl)-2,3-dihydro-1H-inden-4-yl)carbamoyl)-1H-imidazole-4-sulfonamide] | ≤ 1 µM | ≤ 0.5 µM |
| COc1cc(-c2ccc3c(c2NC(=O)NS(=O)(=O)c2cn(C(C)C)nn2)CCC3)ccn1 [Example 234, 1-Isopropyl-N-((5-(2-methoxypyridin-4-yl)-2,3-dihydro-1H-inden-4-yl)carbamoyl)-1H-1,2,3-triazole-4-sulfonamide, sodium salt] | ≤ 1 µM | ≤ 0.5 µM |
| COc1cc(-c2ccc3c(c2NC(=O)NS(=O)(=O)c2cnn(CC(F)F)c2)CCC3)ccn1 [Example 235, 1-(2,2-Difluoroethyl)-N-((5-(2-methoxypyridin-4-yl)-2,3-dihydro-1H-inden-4-yl)carbamoyl)-1H-pyrazole-4-sulfonamide, sodium salt] | ≤ 0.5 µM | ≤ 0.5 µM |
| COc1cc(-c2ccc3c(c2NC(=O)NS(=O)(=O)c2ccn(C(C)(C)CN4CC(C)C4)n2)CCC3)ccn1 [Example 236, N-((5-(2-Methoxypyridin-4-yl)-2,3-dihydro-1H-inden-4-yl)carbamoyl)-1-(2-methyl-1-(3-methylazetidin-1-yl)propan-2-yl)-1H-pyrazole-3-sulfonamide] | ≤ 0.5 µM | ≤ 0.5 µM |
| CC(C)n1ccc(S(=O)(=O)NC(=O)Nc2c(-c3ccnc(OC(F)F)c3)ccc3c2CCC3)n1 [Example 237, N-((5-(2-(Difluoromethoxy)pyridin-4-yl)-2,3-dihydro-1H-inden-4-yl)carbamoyl)-1-isopropyl-1H-pyrazole-3-sulfonamide, sodium salt] | ≤ 1 µM | ≤ 0.5 µM |
| COc1cc(-c2ccc3c(c2NC(=O)NS(=O)(=O)c2nn(C(C)C)cc2F)CCC3)ccn1 [Example 239, 4-Fluoro-1-isopropyl-N-((5-(2-methoxypyridin-4-yl)-2,3-dihydro-1H-inden-4-yl)carbamoyl)-1H-pyrazole-3-sulfonamide] | ≤ 0.5 µM | ≤ 0.5 µM |
| COc1cc(-c2ccc3c(c2NC(=O)NS(=O)(=O)c2ccn(C(C)(C)CN4CC(F)C4)n2)CCC3)ccn1 [Example 242, 1-(1-(3-Fluoroazetidin-1-yl)-2-methylpropan-2-yl)-N-((5-(2-methoxypyridin-4-yl)-2,3-dihydro-1H-inden-4-yl)carbamoyl)-1H-pyrazole-3-sulfonamide, sodium salt] | ≤ 0.5 µM | ≤ 0.5 µM |
| COc1cc(-c2ccc3c(c2NC(=O)NS(=O)(=O)c2ccn(C(C)(C)CN4CCCC4)n2)CCC3)ccn1 [Example 243, N-((5-(2-Methoxypyridin-4-yl)-2,3-dihydro-1H-inden-4-yl)carbamoyl)-1-(2-methyl-1-(pyrrolidin-1-yl)propan-2-yl)-1H-pyrazole-3-sulfonamide, sodium salt] | ≤ 0.5 µM | ≤ 0.5 µM |
| COc1cc(-c2ccc3c(c2NC(=O)NS(=O)(=O)c2ccn(C4CCC4)n2)CCC3)ccn1 [Example 244, 1-Cyclobutyl-N-((5-(2-methoxypyridin-4-yl)-2,3-dihydro-1H-inden-4-yl)carbamoyl)-1H-pyrazole-3-sulfonamide, sodium salt] | ≤ 0.5 µM | ≤ 0.5 µM |
| Cc1cc(-c2ccc3c(c2NC(=O)NS(=O)(=O)c2ccn(C(C)C)n2)CCC3)ccn1 [Example 245, 1-Isopropyl-N-((5-(2-methylpyridin-4-yl)-2,3-dihydro-1H-inden-4-yl)carbamoyl)-1H-pyrazole-3-sulfonamide, sodium salt] | ≤ 0.5 µM | ≤ 0.5 µM |
| COc1cc(-c2ccc3c(c2NC(=O)NS(=O)(=O)c2cnn(C(C)C)n2)CCC3)ccn1 [Example 246, 2-Isopropyl-N-((5-(2-methoxypyridin-4-yl)-2,3-dihydro-1H-inden-4-yl)carbamoyl)-2H-1,2,3-triazole-4-sulfonamide, sodium salt] | ≤ 1 µM | ≤ 0.5 µM |
